# Test results taken from the supplement of paper PMC4862054.
# What was measured:
# Settings in all cases: incubation time: 72 h
# [1] = tested on: CAL-51; experiment: drug sensitivity score (DSS), CellTiter-Blue viability (DSS (AUC-based score)); higher = stronger viability inhibition; extreme values may be limits of the assay
# Experimental: (§1)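 DSRT with the CellTiter-Blue (resazurin reduction) viability readout, fluorescence 560/590 nm, 72 h incubation. Plates were normalised to DMSO and benzethonium chloride controls. DSS is computed from the area under the fitted dose-response curve (5 or 9 concentrations).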
# [2] = tested on: MDA-MB-453; experiment: as above
# Experimental: as §1
# [3] = tested on: MFM-223; experiment: as above
# Experimental: as §1
# [4] = tested on: HDQ-P1; experiment: as above
# Experimental: as §1
# [5] = tested on: MDA-MB-436; experiment: as above
# Experimental: as §1
# [6] = tested on: HCC1599; experiment: as above
# Experimental: as §1
# [7] = tested on: CAL-148; experiment: as above
# Experimental: as §1
# [8] = tested on: CAL-85-1; experiment: as above
# Experimental: as §1
# [9] = tested on: DU-4475; experiment: as above
# Experimental: as §1
# [10] = tested on: BT-474; experiment: as above
# Experimental: as §1
# [11] = tested on: MDA-MB-231; experiment: as above
# Experimental: as §1
# [12] = tested on: BT-549; experiment: as above
# Experimental: as §1
# [13] = tested on: Hs578T; experiment: as above
# Experimental: as §1
# [14] = tested on: HCC1937; experiment: as above
# Experimental: as §1
# [15] = tested on: CAL-120; experiment: as above
# Experimental: as §1
# [16] = tested on: CAL-51; experiment: drug sensitivity score (DSS), CellTiter-Glo (DSS (AUC-based score)); higher = stronger drug effect (viability inhibition or cytotoxicity); extreme values may be limits of the assay
# Summary of the method: (§2)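 Each compound occupied 5 concentrations in 10-fold steps over its own 10,000-fold range in 384-well plates, into which breast cancer cell lines were seeded as 20 µl suspension. Following 72 h of incubation, CellTox Green fluorescence (485/520 nm) was measured, and CellTiter-Glo luminescence was measured after 10 min at room temperature. Plates were individually normalised to 0.1 % DMSO and a positive kill control. From the area under the fitted dose-response curve, a drug sensitivity score was calculated.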
# [17] = tested on: MCF-10A; experiment: as above
# Summary of the method: as §2
# [18] = tested on: HCC1143; experiment: as above
# Summary of the method: as §2
# [19] = tested on: MDA-MB-468; experiment: as above
# Summary of the method: as §2
# [20] = tested on: HCC1599; experiment: as above
# Summary of the method: as §2
# [21] = tested on: DU-4475; experiment: as above
# Summary of the method: as §2
# [22] = tested on: SK-BR-3; experiment: as above
# Summary of the method: as §2
# [23] = tested on: BT-474; experiment: as above
# Summary of the method: as §2
# [24] = tested on: MDA-MB-231; experiment: as above
# Summary of the method: as §2
# [25] = tested on: BT-549; experiment: as above
# Summary of the method: as §2
# [26] = tested on: CAL-120; experiment: as above
# Summary of the method: as §2
SMILES,drug sensitivity score [1],drug sensitivity score [2],drug sensitivity score [3],drug sensitivity score [4],drug sensitivity score [5],drug sensitivity score [6],drug sensitivity score [7],drug sensitivity score [8],drug sensitivity score [9],drug sensitivity score [10],drug sensitivity score [11],drug sensitivity score [12],drug sensitivity score [13],drug sensitivity score [14],drug sensitivity score [15],drug sensitivity score [16],drug sensitivity score [17],drug sensitivity score [18],drug sensitivity score [19],drug sensitivity score [20],drug sensitivity score [21],drug sensitivity score [22],drug sensitivity score [23],drug sensitivity score [24],drug sensitivity score [25],drug sensitivity score [26]
O=P1(N(CCCl)CCCl)NCCCO1 (stereo not drawn) [Cyclophosphamide],0,0,0,0,0.105,0,0,0,0,0,0,0,0,0,0,0,0,0,0,0,0,0,0,0,0,0
C=C1C[C@@H]2[C@H](CC[C@]3(C)C(=O)CC[C@@H]23)[C@@]2(C)C=CC(=O)C=C12 [Exemestane],0,1.5,0,0,0,0,0,0,0,0,0,0,0,0,0,0,0,0,0,0,0,0,0,0,0,0
O=C(Nc1ccncc1)C(=O)c1cn(Cc2ccc(Cl)cc2)c2ccccc12 [Indibulin],10.8,18,5.75,12.5,8.9,0,2.12,11.8,7.93,18.3,20.7,16.6,11.3,25.9,22.2,19.4,0,5.89,12.2,7.03,1.15,12.8,4.97,3.55,12.6,6.2
NC(=O)c1ccc(I)c([N+](=O)[O-])c1 [Iniparib],0,0,0,0,0,0,0,0,0,0,0,0,0,0,1.19,0,0,0,3.75,0,0,0,0,0,0,0
Oc1ccc2c(c1)CC[C@H](c1ccccc1)[C@@H]2c1ccc(OCCN2CCCC2)cc1 [Lasofoxifene],0,0,0,0,0,0,0,0,0,0,0,0,0,0,0,0,0,0,0,0,0,0,0,0,0,0
Cc1ccc(NC(=O)c2ccc(CN3CCN(C)CC3)cc2)cc1Nc1nc(-c2cccnc2)cs1 [Masitinib],0,4.09,0,0,0.552,0,0,0,0,0,0,0,0,0,0,4.22,0,0,4.71,1.31,0,1.79,1.81,1.26,3.23,0
O=C(Nc1cccnc1)N1CCC(Cc2cccc(Oc3ccc(C(F)(F)F)cn3)c2)CC1 [PF-3845],0.908,4.35,0,0,0,0,0,0,0,1.39,0,4.79,0.892,0,0,2.47,0,0,3.47,1.04,0,0,0,0,1.34,0.24
Cc1[nH]c2ccccc2c1CCNCc1ccc(/C=C/C(=O)NO)cc1 [Panobinostat],15,27.8,14.6,14,9.42,16.1,22.1,18.2,20,17.5,16.5,9.07,17.6,17.9,22.2,17.2,11.1,15.1,15.2,14.7,19.2,22.3,16.6,18.2,11.1,12.9
COCC1(CO)C(=O)C2CCN1CC2 (stereo not drawn) [Prima-1 Met],0,0,0,0,0,0,0,0,0,2.5,0,0,0.00378,3.72,0,0,0,0,0,0,0,0,0,0,2.79,0
CNC(=O)c1cc(Oc2ccc(NC(=O)Nc3ccc(Cl)c(C(F)(F)F)c3)c(F)c2)ccn1 [Regorafenib],3.37,5.4,9.2,0,0,1.06,0,0,3.68,1.39,8.54,1.64,2.98,3.4,1.05,5.7,4.48,0,1.92,1.51,1.79,1.17,2.89,0.969,1.23,1.79
CO[C@H]1C[C@@H]2CC[C@@H](C)[C@@](O)(O2)C(=O)C(=O)N2CCCC[C@H]2C(=O)O[C@H]([C@H](C)C[C@@H]2CC[C@@H](OP(C)(C)=O)[C@H](OC)C2)CC(=O)[C@H](C)/C=C(\C)[C@@H](O)[C@@H](OC)C(=O)[C@H](C)C[C@H](C)/C=C/C=C/C=C/1C [Ridaforolimus],22,29.9,22.1,7.08,1.25,0,25,16,16.7,14.5,2.74,17.6,19.1,17.2,19.1,8.46,0,8.23,12.7,0,4.31,10.4,1.18,0,12.4,8.4
c1ccc2c(CCNc3ccc(Nc4ccncc4)cc3)c[nH]c2c1 [Serdemetan],1.53,3.89,0,0,8.76,1.87,4.36,0,3.86,0,0,6.96,2.84,0,0,15.9,0,0,7.12,3.17,7.09,6.23,4.79,3.86,6.83,0
S=P(N1CC1)(N1CC1)N1CC1 [Thio-TEPA],0,0,0,0,0,0,0,0,0,0,3.37,0,0,0,0,0,0,0,0,0,0,0,0,0,1.83,0
